From patent US11560372B2, “Heterocyclic compounds useful as modulators of acetylcholine receptors” (TAKEDA PHARMACEUTICAL COMPANY LIMITED, priority 2017, dated 2023) come the findings set out here.

The target in series [1] is T1, human M1 receptor (hCHRM1) (Homo sapiens, UniProt P11229).
T1 construct: expressed in transfected cells
T1 sequence (P11229 1-460): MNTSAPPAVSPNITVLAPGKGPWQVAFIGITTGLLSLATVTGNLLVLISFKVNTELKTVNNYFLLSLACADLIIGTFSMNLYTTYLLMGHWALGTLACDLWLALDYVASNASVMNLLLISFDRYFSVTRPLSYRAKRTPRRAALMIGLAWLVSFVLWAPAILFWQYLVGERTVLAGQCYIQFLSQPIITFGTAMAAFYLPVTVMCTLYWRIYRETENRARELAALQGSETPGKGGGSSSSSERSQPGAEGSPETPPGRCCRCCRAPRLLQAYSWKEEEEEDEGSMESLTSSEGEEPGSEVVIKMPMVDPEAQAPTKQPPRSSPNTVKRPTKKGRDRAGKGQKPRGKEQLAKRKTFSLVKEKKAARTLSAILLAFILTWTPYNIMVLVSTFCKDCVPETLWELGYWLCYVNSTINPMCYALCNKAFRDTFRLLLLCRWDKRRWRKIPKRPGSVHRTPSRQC
Briefly: Measurement of M1 receptor positive allosteric modulator (M1PAM) activity, calcium fluorescence in CHO-K1 cells. In kind it is cell-based. To be noted: for activity (%) at 10 μM: 10 μM test compound, 100% = acetylcholine final concentration 1 μM, 0% = DMSO; for EC50: inflection point of concentration-dependent curve, in the presence of acetylcholine at EC20 concentration (final 0.8-1.0 nM), read-out: IP value. Summed up: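 CHO-K1 cells stably expressing human M1 loaded with Fluo-4 AM, then given compound plus acetylcholine at EC20 (final 0.8-1.0 nM). Calcium fluorescence read for 1 min; activity normalized to 1 μM acetylcholine (100%) and DMSO (0%), with IP taken as inflection point of concentration curve.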

Series [2] is described as follows: Mouse PK test (cassette dosing). The class given is in vivo. Conditions: male, ICR; for Tmax: mouse plasma, time to reach maximum plasma concentration, oral 1 mg/kg; for MRT / clearance: plasma, mouse, intravenous 0.1 mg/kg; for MRT: mean residence time; for clearance: total clearance, read-out: CL total (converted). On the procedure:
As the mouse, 8-week-old male ICR mice (Japan SLC, Inc.) were used. They were fed on a solid commercially available diet (CE-2, CLEA Japan, Inc.) and allowed to freely ingest tap water as the drinking water. An intravenous administration solution for the mice was prepared by weighing a test compound, dissolving same in dimethylacetamide (DMA) (Wako Pure Chemical Industries, Ltd.), adding the same volume of 1,3-butanediol (Wako Pure Chemical Industries, Ltd.) and mixing by stirring to give a DMA:1,3-butanediol (1:1, v/v) solution. An oral administration solution was prepared by weighing a test compound, pulverizing same in an agate mortar, and gradually adding 0.5 w/v % aqueous methylcellulose solution to give a suspension. For intravenous administration, the solution was administered into femoral vein of the mice at 0.1 mg/mL/kg (salt converted to free form). For oral administration, the suspension was administered to the mice at 1 mg/5 mL/kg (salt converted to free form). The cassette dosing method was used for the both administration routes, and the test compound was administered in the following manner.
In the case of intravenous administration, blood samples were collected from the tail vein at 5, 10, 15, 30 min, 1, 2, 4, 8 hr after administration, an anticoagulation treatment with heparin sodium (Shimizu Pharmaceutical Co., Ltd.) was performed, and plasma was collected after centrifugation and subjected to the measurement of drug concentration. In the case of oral administration, blood samples were collected from the tail vein at 15, 30 min, 1, 2, 4, 8 hr after administration, an anticoagulation treatment with heparin sodium was performed, and plasma was collected after centrifugation and subjected to the measurement of drug concentration.
All drug concentrations were measured by LC-MS/MS analysis. For a pharmacokinetics test, the plasma (5 μL) was placed in a tube, acetonitrile (115 μL) containing internal standard solution was added and they were mixed on a vortex mixer. Thereafter, the mixture was centrifuged (5000 rpm, 5 min, 4° C.). The supernatant (100 μL) after centrifugation was added to 10 mmol/L ammonium formate (100 μL) added earlier and mixed therewith. This sample was injected to LC/MS/MS. […] MS/MS used was AB Sciex TQ5500-MPX (Applied Biosystems).
Tmax: time to reach maximum plasma concentration
iv: intravenous administration
CL total: total clearance

Series [3] concerns Male ICR mice. Briefly: Mouse defecation experiment. In kind it is in vivo. To be noted: mean±standard error. On the procedure:
Mouse Defecation Experiment
Male ICR mice (6-7 weeks old) were used after an acclimation period for about 1 week. A test drug (1 mg/kg or 3 mg/kg) was suspended in 0.5% methylcellulose solution and orally administered at a volume of 10 mL/kg, and the number of feces 2 hr later was counted. Only 0.5% methylcellulose was administered to a solvent administration group.

SMILES strings stand for the structures.

As a reminder, the Tmax is the time at which the peak concentration occurs. By MRT is commonly meant the average time that molecules of a dose stay in the body. On to `Cc1c(Cc2ccc(-c3cnn(C)c3)nc2)cc2c(=O)n([C@H]3CCOC[C@@H]3O)cnc2c1C` [Example 6, 1,5-anhydro-2,3-dideoxy-3-(7,8-dimethyl-6-((6-(1-methyl-1H-pyrazol-4-yl)pyridin-3-yl)methyl)-4-oxoquinazolin-3(4H)-yl)-L-threo-pentitol], for which, in series [1], the “activity (%) at 10 μM” value is 99% and the EC50 worked out at 0.96 nM. In series [2], the time to peak (Tmax) is 1.7 h, the MRT came out at 1.4 h and the clearance is 4.55 mL/min/kg. The “number of feces 2 hr later” value in series [3] (1 mg/kg orally) was determined as 7.2 ± 1.8. For the same compound, the “number of feces 2 hr later” value in series [3] (3 mg/kg orally) was 8.2 ± 1.0.
Turning to `CNC(=O)c1ccc(Cc2cc3c(=O)n([C@H]4CCOC[C@@H]4O)nnc3c(Cl)c2C)cc1F` [Example 19, 1,5-anhydro-3-(8-chloro-6-(3-fluoro-4-(methylcarbamoyl)benzyl)-7-methyl-4-oxo-1,2,3-benzotriazin-3(4H)-yl)-2,3-dideoxy-L-threo-pentitol], in series [1], the “activity (%) at 10 μM” value worked out at 103% and the EC50 is 1.6 nM. Also, in series [2], the time to peak (Tmax) amounted to 1.7 h, the mean residence time (MRT) came out at 2.5 h and the clearance is 4.57 mL/min/kg. Besides, in series [3] (1 mg/kg orally), the “number of feces 2 hr later” value turned out to be 12.6 ± 1.2.
For the compound `COCCNC(=O)c1ccc(Cc2cc3c(=O)n([C@H]4CCOC[C@@H]4O)cnc3c(C)c2C)cc1F` [Example 66, 1,5-anhydro-2,3-dideoxy-3-(6-(3-fluoro-4-((2-methoxyethyl)carbamoyl)benzyl)-7,8-dimethyl-4-oxoquinazolin-3(4H)-yl)-L-threo-pentitol], in series [1], the “activity (%) at 10 μM” value stood at 106% and the EC50 came to 1.8 nM. Also, in series [2], the time to peak (Tmax) turned out to be 0.7 h, the MRT was determined as 0.8 h and the clearance was 26.6 mL/min/kg. The “number of feces 2 hr later” value in series [3] (1 mg/kg orally) amounted to 9.3 ± 1.2.
`Cc1c(Cc2ccc(-c3cn(C)nn3)nc2)cc2c(=O)n([C@H]3CCOC[C@@H]3O)cnc2c1C` [Example 2, 1,5-anhydro-2,3-dideoxy-3-(7,8-dimethyl-6-((6-(1-methyl-1H-1,2,3-triazol-4-yl)pyridin-3-yl)methyl)-4-oxoquinazolin-3(4H)-yl)-L-threo-pentitol]: in series [1], the “activity (%) at 10 μM” value came out at 104% and the EC50 amounted to 1.5 nM. In series [2], the Tmax came to 1 h, the mean residence time MRT was 1 h and the clearance is 10.9 mL/min/kg. Further, the “number of feces 2 hr later” value in series [3] (1 mg/kg orally) stood at 5.0 ± 0.7. Further, the “number of feces 2 hr later” value in series [3] (3 mg/kg orally) is on record as 11.3 ± 0.6.
Take `Cc1c(Cc2ccc(C(=O)NC[C@H]3CCCO3)c(F)c2)cc2c(=O)n([C@H]3CCOC[C@@H]3O)cnc2c1C` [Example 81, 1,5-anhydro-2,3-dideoxy-3-(6-(3-fluoro-4-(((2R)-tetrahydrofuran-2-ylmethyl)carbamoyl)benzyl)-7,8-dimethyl-4-oxoquinazolin-3(4H)-yl)-L-threo-pentitol]: in series [1], the “activity (%) at 10 μM” value is 110% and the EC50 worked out at 3.7 nM. Moreover, in series [2], the time to peak (Tmax) was found to be 0.5 h, the MRT was found to be 0.5 h and the clearance is 72.2 mL/min/kg.
On to `Cc1nn(C)cc1-c1ccc(Cc2cc3c(=O)n([C@H]4CCOC[C@@H]4O)cnc3c(C)c2C)cn1` [Example 5, 1,5-anhydro-2,3-dideoxy-3-(6-((6-(1,3-dimethyl-1H-pyrazol-4-yl)pyridin-3-yl)methyl)-7,8-dimethyl-4-oxoquinazolin-3(4H)-yl)-L-threo-pentitol], for which, in series [1], the “activity (%) at 10 μM” value is 97% and the EC50 came to 1.5 nM. For the same compound, in series [2], the time to peak (Tmax) amounted to 0.7 h, the MRT worked out at 1.2 h and the clearance was 7.45 mL/min/kg. The “number of feces 2 hr later” value in series [3] (1 mg/kg orally) came to 5.6 ± 1.0. For the same compound, the “number of feces 2 hr later” value in series [3] (3 mg/kg orally) is listed as 8.4 ± 2.6.
For the compound `CNC(=O)c1ccc(Cc2cc3c(=O)n([C@H]4CCOC[C@@H]4O)cnc3c(C)c2C)cc1F` [Example 3, 1,5-anhydro-2,3-dideoxy-3-(6-(3-fluoro-4-(methylcarbamoyl)benzyl)-7,8-dimethyl-4-oxoquinazolin-3(4H)-yl)-L-threo-pentitol], in series [1], the “activity (%) at 10 μM” value is given as 103% and the EC50 amounted to 1 nM. Besides, in series [2], the time of peak concentration (Tmax) was determined as 1.7 h, the mean residence time (MRT) came out at 1.9 h and the clearance is 10.2 mL/min/kg. For the same compound, the “number of feces 2 hr later” value in series [3] (1 mg/kg orally) is reported as 14.0 ± 1.0.
